# Data published in paper PMC5860131, “Identification of natural products as novel ligands for the human 5-HT2C receptor” (Biophysics Reports, 2018).
# Columns and labels:
# [1] = target: T1, 5-HT2C receptor G218^5.42A (Homo sapiens, UniProt P28335, DEL255-298/G218A/G251D/H250E/H252N/INS299[…]/L248D/M247A/M300L/T253W); test: CPM thermal stability assay, 5-HT2C mutant G218A; type: binding
# T1 construct: the N- and C-terminals were truncated by 39 and 65 residues, respectively; PreScission protease site + 10× His (C); made in house
# T1 sequence (P28335 with tags, fused parts or gaps with the stated changes): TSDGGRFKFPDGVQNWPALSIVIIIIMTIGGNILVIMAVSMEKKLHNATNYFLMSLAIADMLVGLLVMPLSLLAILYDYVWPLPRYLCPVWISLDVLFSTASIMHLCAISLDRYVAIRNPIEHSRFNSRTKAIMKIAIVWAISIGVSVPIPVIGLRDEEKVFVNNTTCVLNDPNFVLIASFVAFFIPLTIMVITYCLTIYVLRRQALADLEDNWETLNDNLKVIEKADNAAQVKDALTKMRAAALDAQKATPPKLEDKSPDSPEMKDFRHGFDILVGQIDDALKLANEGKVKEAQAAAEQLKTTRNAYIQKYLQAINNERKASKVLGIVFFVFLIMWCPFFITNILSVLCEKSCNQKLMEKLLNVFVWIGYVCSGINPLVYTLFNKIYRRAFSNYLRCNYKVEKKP
# From the text: (§1) Based on the binding poses predicted by molecular docking, single-point mutations were designed to test their impact on ligand binding. Mutations of several residues include the highly conserved Asp134^3.32, which is known to cause 5-HT1B or 5-HT2B receptors to abolish the monoamine ligand binding as reported in the literature (Wang et al. [2013]). In this study, residues forming hydrophobic interactions with the substitution groups on the aporphine scaffold of (–)-crebanine (1) were selected for mutation as well and they are Thr139^3.37, Gly218^5.42, Ala222^5.46, and Leu209^ECL2. Effects of those mutations were tested with the CPM assay and the affinity MS assay (Table 2). In the affinity MS experiment, relative ligand-binding capacity (represented by binding %) to different mutants and the wild-type receptor was compared. […]
# Purified 5-HT2C receptor protein was thoroughly mixed with CPM fluorescent dyes. […] Fluorescence signals, wavelength 387 nm (excitation) and 463 nm (emission), were monitored (Alexandrov et al. [2008]). […] The thermal denaturation of the samples was evaluated using the scatter plot curve, where the horizontal coordinates represented temperature and the vertical coordinates indicated normalized fluorescence intensity recorded for a particular temperature. […]
# [2] = target: T2, 5-HT2C receptor G218^5.42S (Homo sapiens, UniProt P28335, DEL255-298/G218S/G251D/H250E/H252N/INS299[…]/L248D/M247A/M300L/T253W); test: Affinity MS assay, 5-HT2C mutant G218S; type: binding
# T2 construct: the N- and C-terminals were truncated by 39 and 65 residues, respectively; PreScission protease site + 10× His (C); made in house
# T2 sequence (P28335 with tags, fused parts or gaps with the stated changes): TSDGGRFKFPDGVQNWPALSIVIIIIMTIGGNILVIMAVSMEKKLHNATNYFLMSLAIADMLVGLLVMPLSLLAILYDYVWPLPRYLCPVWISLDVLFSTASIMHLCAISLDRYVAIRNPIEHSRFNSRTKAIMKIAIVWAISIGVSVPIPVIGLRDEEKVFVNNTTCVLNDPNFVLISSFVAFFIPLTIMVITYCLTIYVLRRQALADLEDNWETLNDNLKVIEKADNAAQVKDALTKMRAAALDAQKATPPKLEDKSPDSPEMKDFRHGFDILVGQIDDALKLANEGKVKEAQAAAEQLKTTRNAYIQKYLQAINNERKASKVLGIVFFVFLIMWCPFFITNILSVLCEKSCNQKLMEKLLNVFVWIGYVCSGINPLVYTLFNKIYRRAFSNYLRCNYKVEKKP
# From the text: as §1, with “compared. Among the six mutations tested, five of them reduced the binding of (–)-crebanine (1) by more than 40% relative to binding to the wild-type receptor, displaying the importance of hydrophobic interactions.” for “compared.”
# Four experimental replicates were prepared for each pair of the test ligand and the negative control. […] S/C ratios refer to the ratio of MS response of a specific ligand detected in the 5-HT2C incubation sample versus the control. […]
structure (smiles),measurement,setting,value
"COc1ccc2c(c1OC)C[C@@H]1c3c(cc4c(c3-2)OCO4)CCN1C [Compound 1, (–)-crebanine]",(–)-Crebanine/CPM (Tm),"[1]; mutant G218^5.42A, n = 2",53.92 °C
same,Tm value decrease versus wild-type,[1]; mutation Gly218^5.42Ala,over 6.0 °C
same,(–)-Crebanine/MS relative ligand binding,"[2]; mutant G218^5.42S, n = 2",6.04%
same,ligand-binding capacity reduction versus wild-type,[2]; mutation Gly218^5.42Ser,over 60%
